A short description of test [1]: Cytotoxicity against vincristine resistant human KB/VJ300 cells. Format: functional, cell-based.
Test [2] can be described thus: Cytotoxicity against vincristine sensitive human KB/S cells. Format: functional, cell-based.

A word on the IC50: it is the concentration at which inhibition is half-maximal. Read a high IC50 as weaker potency. Consider `CC[C@@]12CC(C(=O)OC)=C3Nc4cc(OC)c(O)cc4[C@@]34CCN(C(=O)[C@@H]3O[C@@H]31)[C@@H]24` [JERANTININE D], for which the half-inhibitory concentration (IC50) was 0.95 µM in test [1] and 0.68 µM in test [2].
As to `CC[C@]12C=CCN3CC[C@]4(C(=C(C(=O)OC)C1)Nc1cc(OC)c(O)cc14)[C@@H]32` [JERANTININE A], the IC50 in test [1] was determined as 1.73 µM; in test [2], 1.99 µM.
Turning to `CC[C@]12C=CCN3CC[C@]4(C(=C(C(=O)OC)C1)Nc1cc(OC)c(OC(C)=O)cc14)[C@@H]32` [JERANTININE A ACETATE], the IC50 is 0.83 µM in test [1] and 1.04 µM in test [2].
As for `CC[C@]12C=CCN3CC[C@]4(C(=C(C(=O)OC)C1)Nc1cc(OC)c(OC)cc14)[C@@H]32` [10-O-METHYLJERANTININE A], the IC50 was 13.6 µM in test [1] and 12 µM in test [2].
As to `CC[C@@]12CC(C(=O)OC)=C3Nc4cc(OC)c(OC)cc4[C@@]34CCN(C[C@@H]3O[C@@H]31)[C@@H]24` [10-O-METHYLJERANTININE B], the half-maximal inhibitory concentration (IC50) in test [1] was found to be 10.7 µM; in test [2], 7.36 µM.
Regarding `COC(=O)C1=C2Nc3cc(OC)c(O)cc3[C@@]23CCN2CC[C@@H]4OCC[C@]4(C1)[C@H]23` [JERANTININE F], the half-inhibitory concentration (IC50) came to 12.3 µM in test [1] and 12.8 µM in test [2].
For the compound `CC[C@]1(O)C[C@H]2CN(CCc3c([nH]c4ccccc34)[C@@](C(=O)OC)(c3cc4c(cc3OC)N(C=O)[C@H]3[C@@](O)(C(=O)OC)[C@H](OC(C)=O)[C@]5(CC)C=CCN6CC[C@]43[C@@H]65)C2)C1` [VINCRISTINE], the IC50 worked out at 1.2 µM in test [1] and 0.0054 µM in test [2].
On to `CC[C@]12C=CC(=O)N3CC[C@]4(C(=C(C(=O)OC)C1)Nc1cc(OC)c(O)cc14)[C@@H]32` [JERANTININE C], for which the IC50 in test [1] is 1.54 µM; in test [2], 0.81 µM.
In the case of `CC[C@]12CCCN3CC[C@]4(C(=C(C(=O)OC)C1)Nc1cc(OC)c(O)cc14)[C@@H]32` [JERANTININE E], the results for the IC50 in test [1] and in test [2] were 2.03 µM and 2.55 µM, respectively.
Take `CC[C@@]12CC(C(=O)OC)=C3Nc4cc(OC)c(OC(C)=O)cc4[C@@]34CCN(C[C@@H]3O[C@@H]31)[C@@H]24` [JERANTININE B ACETATE]: the IC50 came to 0.75 µM in test [1] and 0.7 µM in test [2].
Consider `CC[C@@]12CC(C(=O)OC)=C3Nc4cc(OC)c(O)cc4[C@@]34CCN(C[C@@H]3O[C@@H]31)[C@@H]24` [JERANTININE B], for which the 50% inhibitory concentration (IC50) in test [1] stood at 0.95 µM; in test [2] it was 1.11 µM.
